molecular target: T1, Axl (Homo sapiens, UniProt P30530); assay: Phospho-Akt In-Cell Western Assay (inhibition of Axl activity after Axl-antibody cross-linking); format: cell-based; settings: Hela cells, phospho-Akt chemiluminescence normalized to relative cell number; compounds of formula (Ia), Table 1; read-out: IC50
T1 construct: endogenous in cells; host or cells: HeLa cells
T1 sequence (P30530 26-894): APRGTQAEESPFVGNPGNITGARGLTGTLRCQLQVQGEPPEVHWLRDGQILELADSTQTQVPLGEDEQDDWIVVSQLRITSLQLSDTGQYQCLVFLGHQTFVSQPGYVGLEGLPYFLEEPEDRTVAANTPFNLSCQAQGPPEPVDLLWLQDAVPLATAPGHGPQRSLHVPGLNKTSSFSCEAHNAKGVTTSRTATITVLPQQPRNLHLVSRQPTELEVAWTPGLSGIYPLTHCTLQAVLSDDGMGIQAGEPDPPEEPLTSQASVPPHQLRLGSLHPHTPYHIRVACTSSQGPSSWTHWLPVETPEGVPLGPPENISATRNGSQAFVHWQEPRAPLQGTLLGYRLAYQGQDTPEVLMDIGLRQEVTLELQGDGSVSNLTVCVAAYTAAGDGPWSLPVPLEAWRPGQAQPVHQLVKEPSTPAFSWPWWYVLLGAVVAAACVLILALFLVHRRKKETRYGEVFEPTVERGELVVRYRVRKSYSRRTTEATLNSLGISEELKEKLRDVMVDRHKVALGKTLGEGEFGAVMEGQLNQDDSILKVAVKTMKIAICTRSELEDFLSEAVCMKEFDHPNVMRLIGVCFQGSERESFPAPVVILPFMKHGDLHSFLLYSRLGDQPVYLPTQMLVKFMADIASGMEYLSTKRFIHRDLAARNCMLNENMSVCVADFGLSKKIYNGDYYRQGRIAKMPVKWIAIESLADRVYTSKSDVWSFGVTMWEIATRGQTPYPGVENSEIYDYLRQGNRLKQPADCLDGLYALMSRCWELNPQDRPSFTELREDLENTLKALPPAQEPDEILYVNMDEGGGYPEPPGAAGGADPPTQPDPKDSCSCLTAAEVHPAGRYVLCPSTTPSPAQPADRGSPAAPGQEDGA
Description: The compounds of the invention were tested in the following assay for their ability to inhibit Axl activity.
Phospho-Akt In-Cell Western Assay
• Cell culture plate: 96 well assay plate (Corning 3610), white, clear bottom, tissue-culture treated. • Cells: Hela cells. • Starvation medium: For Axl stimulation: 0.5% FCS (fetal calf serum) in DMEM, plus Axl/Fc (extracellular domain of AXL fused to immunoglobulin Fc region) (R&D, 154-AL) 500 ng/mL. • For EGF (epidermal growth factor) stimulation: 0.5% FCS in DMEM (Dulbecco's modified Eagles medium). • Poly-L-Lysine 0.01% solution (the working solution): […], dilute In PBS (phosphate buffered saline). • Axl antibody cross-linking: • 1st: Mouse anti-Axl (R&D, MAB154). • 2nd: Biotin-SP-conjugated AffiniPure goat anti-mouse IgG (H+ L) (Jackson ImmunoResearch #115-065-003). • Fixing buffer: 4% formaldehyde in PBS. • Wash buffer: 0.1% TritonX-100 in PBS. • Quenching buffer: 3% H2O2, 0.1% Azide in wash buffer, Azide and hydrogen peroxide (H2O2) are added fresh. • Blocking buffer: 5% BSA in TBST (tris buffered saline plus 0.1% Tween 20). • Primary antibody: Rabbit anti-human Phospho-Akt antibody (Cell Signaling 9271): 1×250 diluted in blocking buffer. • Secondary antibody: HRP (horse radish peroxidase)-conjugated Goat anti-Rabbit secondary, stock solution: Jackson ImmunoResearch (Goat anti-Rabbit HRP, #111-035-144) 1:1 diluted in glycerol, store at −20° C. The working solution: 1×2000 dilution of stock in blocking buffer. • Chemiluminescent working solution (Pierce, 37030): SuperSignal ELISA (enzyme linked immunosorbant assay) Pico Chemiluminescent substrate. • Crystal Violet solution: Stock: 2.5% Crystal violet in methanol, filtered and kept at ambient temperature. The working solution: dilute the stock 1:20 with PBS immediately before use. • 10% SDS: working solution: 5% SDS (sodium dodecylsulfate), diluted in PBS Methods: Day 1:
A 96 well TC (tissue culture treated) plate was coated with 10 μg/mL poly-L-Lysine at 37° C. for 30 min, washed twice with PBS, and air-dried for 5 minutes before cells were added. Hela cells were seeded at 10,000 cells/well and the cells were starved in 100 μL starvation medium containing Axl/Fc for 24 hrs.
The cells were pre-treated with test compounds by adding 100 μL of 2× test compound to the starvation medium on the cells. The cells were incubated at 37° C. for 1 hr before stimulation.
The resulting mix was warmed to 37° C. 50 μL of 5×Axl 1st/2nd of antibody cluster was added to the cells and the cells were incubated at 37° C. for 5 min.
After 5 minutes stimulation, the plate was flicked to remove medium and the plate was tapped onto paper towels. Formaldehyde (4.0% in PBS, 100 μL) was added to fix the cells and the cells were incubated at ambient temperature for 20 min without shaking.
The cells were washed with a plate washer buffer to remove the formaldehyde solution. The plate was flicked to removed excess wash buffer and tapped onto paper towels. Quenching buffer (100 μL) was added to each well and the cells were incubated at ambient temperature for 20 minutes without shaking.
The cells were washed with a plate washer buffer to remove the quenching buffer. Blocking buffer (100 μL) was added and the cells were incubated at ambient temperature for at least an hour with gentle shaking.
The cells were washed with a plate washer buffer and diluted primary antibody (50 μL) was added to each well (blocking buffer was added to the negative control wells instead). The plates were incubated overnight at 4° C. with gentle shaking.
The wash buffer was removed, diluted secondary antibody (100 μL) was added, and the cells were incubated at ambient temperature for 1 hour with gentle shaking. During the incubation, the chemiluminescent reagent was brought to ambient temperature.
The secondary antibody was removed by washing the cells 1× with wash buffer, 1× with PBS by plate washer.

| Compound | IC50 [µM] |
| --- | --- |
| CN1CCN(c2ccc(Nc3nc(N)n(-c4cc5c(nn4)-c4ccccc4CCC5)n3)cc2F)CC1c1ccccc1 (stereo not shown) [Compound 5, 1-(6,7-dihydro-5H-benzo[6,7]cyclohepta[1,2-c]pyridazin-3-yl)-N^3-(3-fluoro-4-(4-methyl-3-phenylpiperazin-1-yl)phenyl)-1H-1,2,4-triazole-3,5-diamine] | > 20 |
| CS(=O)(=O)Nc1cccc(-c2ccc(Nc3nc(N)n(-c4cc5c(nn4)-c4ccccc4CCC5)n3)cn2)c1 [Compound 98, 1-(6,7-dihydro-5H-benzo[6,7]cyclohepta[1,2-c]pyridazin-3-yl)-N^3-(6-(3-methylsulfonamidylphenyl)-pyridine-3-yl)-1H-1,2,4-triazole-3,5-diamine] | > 20 |
| COCCNC(=O)c1ccc(Nc2nc(N)n(-c3cc4c(nn3)-c3ccccc3CCC4)n2)cc1 [Compound 20, 1-(6,7-dihydro-5H-benzo[6,7]cyclohepta[1,2-c]pyridazin-3-yl)-N^3-(4-((2-(methoxy)ethyl)amino-carbonyl)phenyl)-1H-1,2,4-triazole-3,5-diamine] | 1 to 10 |
| CN1CCN(C2CCN(c3ccc(Nc4nc(N)n(-c5cc6c(nn5)CCCc5ccccc5-6)n4)cc3F)CC2)CC1 [Compound 85, 1-(6,7-dihydro-5H-benzo[6,7]cyclohepta[4,5-c]pyridazin-2-yl)-N^3-(3-fluoro-4-(4-(N-methylpiperazin-1-yl)piperidin-1-yl)phenyl)-1H-1,2,4-triazole-3,5-diamine] | < 1 |
| Nc1nc(Nc2ccc(N3CCC(N4CCCCC4)CC3)c(F)c2)nn1-c1cc2c(nn1)-c1ccccc1CCC2 [Compound 6, 1-(6,7-dihydro-5H-benzo[6,7]cyclohepta[1,2-c]pyridazin-3-yl)-N^3-(3-fluoro-(4-(4-piperidin-1-yl)piperidin-1-yl)phenyl)-1H-1,2,4-triazole-3,5-diamine] | < 1 |
| Nc1nc(Nc2ccc(C(=O)N3CCN(C4CCCC4)CC3)cc2)nn1-c1cc2c(nn1)-c1ccccc1CCC2 [Compound 10, 1-(6,7-dihydro-5H-benzo[6,7]cyclohepta[1,2-c]pyridazin-3-yl)-N^3-(4-(4-(cyclopentyl)piperazin-1-ylcarbonyl)phenyl)-1H-1,2,4-triazole-3,5-diamine] | 1 to 10 |

Results, then the compound that gave them:

| IC50 [µM] | Compound |
| --- | --- |
| < 1 | CN(C)CCN1CCOc2cc(Nc3nc(N)n(-c4cc5c(nn4)-c4ccccc4OCC5)n3)ccc21 [Compound 122, 1-(6,7-dihydro-5H-benzo[2,3]oxepino[4,5-c]pyridazin-3-yl)-N^3-(4-(2-dimethylaminoethyl)-(3,4-dihydro-2H-benzo[b][1,4]oxazin-7-yl))-1H-1,2,4-triazole-3,5-diamine] |
| 1 to 10 | Nc1nc(Nc2ccc3c(c2)OCCCO3)nn1-c1cc2c(nn1)-c1ccccc1CCC2 [Compound 100, 1-(6,7-dihydro-5H-benzo[6,7]cyclohepta[1,2-c]pyridazin-3-yl)-N^3-(3,4-dihydro-2H-benzo[b][1,4]dioxepin-7-yl)-1H-1,2,4-triazole-3,5-diamine] |
| 1 to 10 | Nc1nc(Nc2ccc(N3CC[C@H]4CCCC[C@@H]4C3)c(F)c2)nn1-c1cc2c(nn1)-c1ccccc1CCC2 [Compound 127, 1-(6,7-dihydro-5H-benzo[6,7]cyclohepta[1,2-c]pyridazin-3-yl)-N^3-(3-fluoro-4-((4aR,8aS)-decahydroisoquinolin-2-yl)phenyl)-1H-1,2,4-triazole-3,5-diamine] |
| < 1 | CN1CCC2CN(c3ccc(Nc4nc(N)n(-c5cc6c(nn5)-c5ccccc5CCC6)n4)cc3F)CC21 (stereo not shown) [Compound 81, 1-(6,7-dihydro-5H-benzo[6,7]cyclohepta[1,2-c]pyridazin-3-yl)-N^3-(3-fluoro-4-(1-methyl-octahydropyrrolo[3,4-b]pyrrol-5-yl)phenyl)-1H-1,2,4-triazole-3,5-diamine] |

same assay, conditions: Hela cells, phospho-Akt chemiluminescence normalized to relative cell number; compounds of formula (Ib), Table 2; read-out: IC50

| IC50 [µM] | Compound |
| --- | --- |
| > 20 | CN(C)Cc1nc2cc(Nc3nc(N)nn3-c3cc4c(nn3)-c3ccccc3CCC4)ccc2[nH]1 [Compound 159, 1-(6,7-dihydro-5H-benzo[6,7]cyclohepta[1,2-c]pyridazin-3-yl)-N^5-(2-((dimethylamino)methyl)-1H-benzo[d]imidazol-5-yl)-1H-1,2,4-triazole-3,5-diamine] |
| 1 to 10 | Nc1nc(Nc2ccc(N3CCC(N4CCCC4)C3)c(F)c2)n(-c2cc3c(nn2)-c2ccccc2CCC3)n1 (stereo not shown) [Compound 174, 1-(6,7-dihydro-5H-benzo[6,7]cyclohepta[1,2-c]pyridazin-3-yl)-N^5-(3-fluoro-(4-(3-pyrrolidin-1-yl)pyrrolidin-1-yl)phenyl)-1H-1,2,4-triazole-3,5-diamine] |

same assay, conditions: inhibition of Axl activity; Table 1, compounds of formula (Ia); read-out: IC50

| Compound | IC50 [µM] |
| --- | --- |
| Cc1csc2c(-n3nc(Nc4cnc5c(c4)CCC4(CC5)OCCO4)nc3N)nc(Cl)nc12 [Compound 241, 1-(2-chloro-7-methylthieno[3,2-d]pyrimidin-4-yl)-N^3-(5,6,8,9-tetrahydrospiro[cyclohepta[b]pyridine-7,2′-[1,3]dioxolane]-3-yl)-1H-1,2,4-triazole-3,5-diamine] | < 1 |
| Cc1csc2c(-n3nc(Nc4cnc5c(c4)CCC4(CCC5)OCC(C)(C)CO4)nc3N)nc(Cl)nc12 [Compound 246, 1-(2-chloro-7-methylthieno[3,2-d]pyrimidin-4-yl)-N^3-(5′,5′-dimethyl-6,8,9,10-tetrahydro-5H-spiro[cycloocta[b]pyridine-7,2′-[1,3]dioxane]-3-yl)-1H-1,2,4-triazole-3,5-diamine] | < 1 |

The remaining lines, values ahead:

| IC50 [µM] | Compound |
| --- | --- |
| 1 to 10 | Nc1nc(Nc2ccc(N3CCN4CCCCC4C3)c(F)c2)nn1-c1cc2c(nn1)-c1ccccc1CCC2 (stereo not shown) [Compound 128, 1-(6,7-dihydro-5H-benzo[6,7]cyclohepta[1,2-c]pyridazin-3-yl)-N^3-(3-fluoro-4-(octahydro-1H-pyrido[1,2-a]pyrazin-2-yl)phenyl)-1H-1,2,4-triazole-3,5-diamine] |
| < 1 | Nc1nc(Nc2ccc3c(c2)CCC(N)CC3)nn1-c1cc2c(nn1)-c1ccccc1CCC2 (stereo not shown) [Compound 234, 1-(6,7-dihydro-5H-benzo[6,7]cyclohepta[1,2-c]pyridazin-3-yl)-N^3-(7-amino-6,7,8,9-tetrahydro-5H-benzo[7]annulene-2-yl)-1H-1,2,4-triazole-3,5-diamine] |
